Values after ≈ are worked out from the molar mass of the structure shown.
Tests used:
Type in all cases: cell-based
Rhinovirus Type 2 = test: Viral sensitivity, filter disc method; settings: strain HGP; about 50 mcg per disc, HeLa
Experimental: (§1) In the test for viral sensitivity, by the filter disc method, 5 mg. of 1-(4-phenyl-2-thiazolyl)-3-phenylguanidine was dissolved in 1-2 drops of dimethylsulfoxide and 2.5 ml. of saline. Filter paper discs, when saturated with the solution, absorbed about 50 mcg. of the compound.
(§2) Sensitivity tests were performed by a modification of the method of Herrmann, et al., Proc. Soc. Exp. Biol. & Med., 103, 625 (1960). HeLa monolayers in 150 mm plastic dishes were infected with 1.0 ml. of rhinovirus suspension known to produce destruction of 80-90% of the cells in 4 to 5 days. Following viral adsorption, the cells were overlayed with 30 ml. of Eagle's minimum essential medium containing Noble agar at 0.5%, bovine fetal serum at 2.0%, diethylaminoethyl dextran at 100 mcg/ml. and magnesium chloride at 3 millimoles. Filter discs (1/4 inch Carl Schleicher and Schuell Co., No. 740E), containing about 50 mcg. of 1-(4-phenyl-2-thiazolyl)-3-phenylguanidine, were placed on the solidified surface and the culture plates incubated at 33° C. After 4 to 5 days, the overlay medium was decanted and the cells stained with 0.1% crystal violet in 20% ethanol. A zone of 10 mm or more in which at least two-thirds of the cells were protected from viral cytopathic effects, indicates antiviral activity. The following Table III lists 35 rhinovirus serotypes which were inhibited by this compound.

Rhinovirus Type 19 = test: Viral sensitivity, filter disc method; settings: strain 6072CV18; about 50 mcg per disc, HeLa
Experimental: as §1, §2

Rhinovirus Type 51 = test: Viral sensitivity, filter disc method; settings: strain 605CV45; about 50 mcg per disc, HeLa
Experimental: as §1, §2

Rhinovirus Type 36 = test: Viral sensitivity, filter disc method; settings: strain 342H; about 50 mcg per disc, HeLa
Experimental: as §1, §2

Rhinovirus Type 49 = test: Viral sensitivity, filter disc method; settings: strain 8213; about 50 mcg per disc, HeLa
Experimental: as §1, §2

Rhinovirus Type 10 = test: Viral sensitivity, filter disc method; settings: strain 204CV14; about 50 mcg per disc, HeLa
Experimental: as §1, §2

Rhinovirus Type 26 = test: Viral sensitivity, filter disc method; settings: strain 5660CV27; about 50 mcg per disc, HeLa
Experimental: as §1, §2

Rhinovirus Type 53 = test: Viral sensitivity, filter disc method; settings: strain FO13928; about 50 mcg per disc, HeLa
Experimental: as §1, §2

Rhinovirus Type 1B = test: Viral sensitivity, filter disc method; settings: strain B632; about 50 mcg per disc, HeLa, 33° C., 4 to 5 days
Experimental: as §1, §2

Rhinovirus Type 24 = test: Viral sensitivity, filter disc method; settings: strain 5146CV25; about 50 mcg per disc, HeLa
Experimental: as §1, §2

Rhinovirus Type 15 = test: Viral sensitivity, filter disc method; settings: strain 1734; about 50 mcg per disc, HeLa
Experimental: as §1, §2

Rhinovirus Type 41 = test: Viral sensitivity, filter disc method; settings: strain 56110; about 50 mcg per disc, HeLa
Experimental: as §1, §2

Rhinovirus Type 25 = test: Viral sensitivity, filter disc method; settings: strain 5426CV26; about 50 mcg per disc, HeLa
Experimental: as §1, §2

Rhinovirus Type 29 = test: Viral sensitivity, filter disc method; settings: strain 179E; about 50 mcg per disc, HeLa
Experimental: as §1, §2

Rhinovirus Type 28 = test: Viral sensitivity, filter disc method; settings: strain 6101CV29; about 50 mcg per disc, HeLa
Experimental: as §1, §2

Rhinovirus Type 16 = test: Viral sensitivity, filter disc method; settings: strain 11757; about 50 mcg per disc, HeLa
Experimental: as §1, §2

Rhinovirus Type 23 = test: Viral sensitivity, filter disc method; settings: strain 5124CV24; about 50 mcg per disc, HeLa
Experimental: as §1, §2

Rhinovirus Type 11 = test: Viral sensitivity, filter disc method; settings: strain 1CV15; about 50 mcg per disc, HeLa
Experimental: as §1, §2

Rhinovirus Type 52 = test: Viral sensitivity, filter disc method; settings: strain 515-CV34; about 50 mcg per disc, HeLa
Experimental: as §1, §2

Rhinovirus Type 50 = test: Viral sensitivity, filter disc method; settings: strain A2 No. 58; about 50 mcg per disc, HeLa
Experimental: as §1, §2

Rhinovirus Type 34 = test: Viral sensitivity, filter disc method; settings: strain 137-3; about 50 mcg per disc, HeLa
Experimental: as §1, §2

Rhinovirus Type 4 = test: Viral sensitivity, filter disc method; settings: strain 16/60; about 50 mcg per disc, HeLa
Experimental: as §1, §2

Rhinovirus Type 21 = test: Viral sensitivity, filter disc method; settings: strain 47CV21; about 50 mcg per disc, HeLa
Experimental: as §1, §2

Rhinovirus Type 30 = test: Viral sensitivity, filter disc method; settings: strain 106F; about 50 mcg per disc, HeLa
Experimental: as §1, §2

Rhinovirus Type 31 = test: Viral sensitivity, filter disc method; settings: strain 140F; about 50 mcg per disc, HeLa
Experimental: as §1, §2

Rhinovirus Type 47 = test: Viral sensitivity, filter disc method; settings: strain 1979MCV46; about 50 mcg per disc, HeLa
Experimental: as §1, §2

Rhinovirus Type 9 = test: Viral sensitivity, filter disc method; settings: strain 211CV13; about 50 mcg per disc, HeLa
Experimental: as §1, §2

Rhinovirus Type 38 = test: Viral sensitivity, filter disc method; settings: strain CH79; about 50 mcg per disc, HeLa
Experimental: as §1, §2

Rhinovirus Type 46 = test: Viral sensitivity, filter disc method; settings: strain Baylor 2; about 50 mcg per disc, HeLa
Experimental: as §1, §2

Rhinovirus Type 14 = test: Viral sensitivity, filter disc method; settings: strain 1059; about 50 mcg per disc, HeLa
Experimental: as §1, §2

Rhinovirus Type 5 = test: Viral sensitivity, filter disc method; settings: strain Norman; about 50 mcg per disc, HeLa
Experimental: as §1, §2

Rhinovirus Type 22 = test: Viral sensitivity, filter disc method; settings: strain 127CV22; about 50 mcg per disc, HeLa
Experimental: as §1, §2

Rhinovirus Serotype 32 = test: Plaque assay, minimal inhibitory concentration; settings: Enterovirus; HeLa Cells; inhibiting virus plaque formation by 50%

N=C(Nc1ccccc1)Nc1nc(-c2ccccc2)cs1 [1-(4-phenyl-2-thiazolyl)-3-phenylguanidine]
inhibition of rhinovirus serotype (zone of 10 mm or more) (Rhinovirus Type 2): inhibited | inhibition of rhinovirus serotype (zone of 10 mm or more) (Rhinovirus Type 19): inhibited | inhibition of rhinovirus serotype (zone of 10 mm or more) (Rhinovirus Type 51): inhibited | inhibition of rhinovirus serotype (zone of 10 mm or more) (Rhinovirus Type 36): inhibited | inhibition of rhinovirus serotype (zone of 10 mm or more) (Rhinovirus Type 49): inhibited | inhibition of rhinovirus serotype (zone of 10 mm or more) (Rhinovirus Type 10): inhibited | inhibition of rhinovirus serotype (zone of 10 mm or more) (Rhinovirus Type 26): inhibited | inhibition of rhinovirus serotype (zone of 10 mm or more) (Rhinovirus Type 53): inhibited | inhibition of rhinovirus serotype (zone of 10 mm or more) (Rhinovirus Type 1B): inhibited | inhibition of rhinovirus serotype (zone of 10 mm or more) (Rhinovirus Type 24): inhibited | inhibition of rhinovirus serotype (zone of 10 mm or more) (Rhinovirus Type 15): inhibited | inhibition of rhinovirus serotype (zone of 10 mm or more) (Rhinovirus Type 41): inhibited | inhibition of rhinovirus serotype (zone of 10 mm or more) (Rhinovirus Type 25): inhibited | inhibition of rhinovirus serotype (zone of 10 mm or more) (Rhinovirus Type 29): inhibited | inhibition of rhinovirus serotype (zone of 10 mm or more) (Rhinovirus Type 28): inhibited | inhibition of rhinovirus serotype (zone of 10 mm or more) (Rhinovirus Type 16): inhibited | inhibition of rhinovirus serotype (zone of 10 mm or more) (Rhinovirus Type 23): inhibited | inhibition of rhinovirus serotype (zone of 10 mm or more) (Rhinovirus Type 11): inhibited | inhibition of rhinovirus serotype (zone of 10 mm or more) (Rhinovirus Type 52): inhibited | inhibition of rhinovirus serotype (zone of 10 mm or more) (Rhinovirus Type 50): inhibited | inhibition of rhinovirus serotype (zone of 10 mm or more) (Rhinovirus Type 34): inhibited | inhibition of rhinovirus serotype (zone of 10 mm or more) (Rhinovirus Type 4): inhibited | inhibition of rhinovirus serotype (zone of 10 mm or more) (Rhinovirus Type 21): inhibited | inhibition of rhinovirus serotype (zone of 10 mm or more) (Rhinovirus Type 30): inhibited | inhibition of rhinovirus serotype (zone of 10 mm or more) (Rhinovirus Type 31): inhibited | inhibition of rhinovirus serotype (zone of 10 mm or more) (Rhinovirus Type 47): inhibited | inhibition of rhinovirus serotype (zone of 10 mm or more) (Rhinovirus Type 9): inhibited | inhibition of rhinovirus serotype (zone of 10 mm or more) (Rhinovirus Type 38): inhibited | inhibition of rhinovirus serotype (zone of 10 mm or more) (Rhinovirus Type 46): inhibited | inhibition of rhinovirus serotype (zone of 10 mm or more) (Rhinovirus Type 14): inhibited | inhibition of rhinovirus serotype (zone of 10 mm or more) (Rhinovirus Type 5): inhibited | inhibition of rhinovirus serotype (zone of 10 mm or more) (Rhinovirus Type 22): inhibited | IC50 (Rhinovirus Serotype 32): 0.4 µg/mL (≈ 1.36 µM)

— patent US4089965A, “Thiazolylphenylguanidines as antirhinovirus agents” (American Cyanamid Company, priority 1977, dated 1978)
